Experimental data published in patent publication US20260327655A1, “SMALL-MOLECULE REGULATED ALTERNATIVE SPLICING” (priority 2023, published 2026).

What was measured:
RS1-1 and variants = assay: Luciferase induction assay, RS1-1 and variants in HEK-293T cells; assay type: cell-based, human; details: RS1-1, RS1-2, RS1-3, RS1-4, RS1-7, and RS1-9; FIG. 9A; 18 hours
Method: (§1) HEK-293T cells were cultured in DMEM+10% FBS, collected after trypsinization, and dispensed into 96-well plates (cell culture-treated). Each well of the plate was seeded with 1.0×10^5 cells in 100 μL culture medium. After a 1-hour incubation in the tissue culture incubator (5% CO2, 37° C.), plasmid DNA was complexed with a transfection reagent, such as Lipofectamine 3000, and added to respective wells on the plate. Each well received 100 ng of plasmid DNA complexed with 0.15 μL Lipofectamine 3000. The plasmids utilized in the experiment encoded a CMV promoter upstream of the RS1-1 variant that controlled the expression of a Firefly Luciferase gene followed by a SV40 polyadenylation signal. After a 10-minute incubation at room temperature, either DMSO vehicle or a splice modulator compound at specified doses was added to the wells of the plate. Plates were then incubated for 18 hours in a tissue culture incubator. Endpoint analysis was performed by adding 100 μL of a Luciferase substrate, such as Steady-Luc Firefly Luciferase substrate, to each well of the assay plate. The liquid contents of each was transferred to a 96-well plate, mixed again for 2 min on an orbital shaker, and incubated at room temperature for 5 min. Finally, the luminescent signal from each well was measured with a plate reader.

RS1-10, HepG2 cells = assay: RS1-10 performance in HepG2 cells; assay type: cell-based, human; details: CBA promoter, 18 hours, FIG. 10D
Method: The human SH-SY5Y neuroblastoma cell line or the human hepatic HepG2 cell line was cultured in EMEM+10% FBS, collected after trypsinization, and then dispensed into 96-well plates (cell culture-treated). Each well of the plate was seeded with 1.0×10^5 cells in 100 μL culture medium. After a 1-hour incubation in the tissue culture incubator (5% CO2, 37 degrees C.), plasmid DNA was complexed with a transfection reagent, such as Lipofectamine 3000, and added to respective wells on the plate. Each well received an equivalent of 100 ng of plasmid DNA complexed with 0.15 μL Lipofectamine 3000 (Opti-MEM I was used as diluent). Triplicate wells were used for each condition tested in the experiment. The plasmids utilized in the human SH-SY5Y neuroblastoma cell line encoded either a CBA promoter or cloned human Synapsin promoter upstream of the RS1-10 construct that controlled the expression of a Firefly Luciferase gene followed by a SV40 polyadenylation signal. The plasmids utilized in the HepG2 cells encoded a CBA promoter upstream of the RS1-10 construct that controlled the expression of a Firefly Luciferase gene followed by a SV40 polyadenylation signal.
After a 10-minute incubation at room temperature, either DMSO vehicle or TA was added to the wells of the plate. […] Finally, the luminescent signal from each well was measured with a plate reader. […]

RS3-1 and variants = assay: Luciferase induction assay, RS3-1 and variants in HEK-293T cells; assay type: cell-based, human; details: 18 hours
Method: as §1, with “RS3-1 construct and variants” for “RS1-1 variant”, “116B” for “a splice modulator compound”, “reader. […]” for “reader.”

[1] = test system: RS1-10 minigene (Firefly Luciferase), HEK-293T cells; assay: Luciferase induction assay, RS1-10 with splice modulator compounds in HEK-293T cells; assay type: cell-based; details: Homo sapiens, 18 hours, n of 3, read-out: Mean fold-induction of luciferase (relative to vehicle control)
Method: (§2) HEK-293T cells were cultured in DMEM+10% FBS, collected after trypsinization, and then dispensed into 96-well plates (cell culture-treated). Each well of the plate was seeded with 1.0×10^5 cells in 100 μL culture medium. After a 1-hour incubation in a tissue culture incubator (5% CO2, 37 degrees C.), plasmid DNA was complexed with a transfection reagent, such as Lipofectamine 3000, and added to respective wells on the plate. Each well received an equivalent of 100 ng of plasmid DNA complexed with 0.15 μL Lipofectamine. Triplicate wells were used for each condition tested in the experiment. The plasmid utilized in the experiment encoded a CMV promoter upstream of the RS I-10 variant that controlled the expression of a Firefly Luciferase gene followed by a SV40 polyadenylation signal. After a 10-minute incubation at room temperature, either DMSO vehicle or specified compound at specified dose was added to the wells of the plate. Plates were then incubated for 18 hours in a tissue culture incubator. Endpoint analysis was performed by adding 100 uL Steady-Luc Firefly Luciferase substrate to each well of the assay plate. After mixing, the liquid contents of each was transferred to a 96-well plate, mixed again for 2 min on an orbital shaker, and incubated at room temperature for 5 min. Finally, the luminescent signal from each well was measured with a with PerkinElmer Envision plate reader. The results of this assay show RS1-10 responded to the majority of the splice modulator compounds used in a dose responsive manner (FIG. 9C). Bars represent mean+/−standard deviation of 3 wells normalized to vehicle controls.

RS4-1 and variants = assay: Luciferase induction assay, RS4-1 and variants in HEK-293T cells; assay type: cell-based, human; details: 18 hours, FIGS. 15A, 15B
Method: as §1, with “of the RS4-1 construct and variants that controlled” for “of the RS1-1 variant that controlled”, “vehicle or 24 A at specified” for “vehicle or a splice modulator compound at specified”, “adding 100 uL of a” for “adding 100 μL of a”, “plate reader. […]” for “plate reader.”

[2] = test system: RS2-3 minigene (Firefly Luciferase), HEK-293T cells; assay: Luciferase induction assay, RS2-3 with splice modulator compounds in HEK-293T cells; assay type: cell-based; details: Homo sapiens, 18 hours, n of 3, read-out: Mean fold-induction of luciferase (relative to vehicle control)
Method: as §2, with “RS2-3” for “RS I-10”, “RS2-3” for “RS1-10”, “used” for “used in a dose responsive manner”, “13C)” for “9C).”

[3] = test system: RS3-13 minigene (Firefly Luciferase), HEK-293T cells; assay: Luciferase induction assay, RS3-13 with splice modulator compounds in HEK-293T cells; assay type: cell-based; details: Homo sapiens, 18 hours, n of 3, read-out: Mean fold-induction of luciferase (relative to vehicle control)
Method: as §2, with “RS3-13” for “the RS I-10 variant”, “RS3-13” for “RS1-10”, “used” for “used in a dose responsive manner”, “14D)” for “9C).”

| SMILES | fold induction of luciferase (RS1-1 and variants) | fold-induction of luciferase (RS1-10, HepG2 cells) | fold induction of luciferase compared to vehicle, constructs vs RS3-1 (RS3-1 and variants; 100 nM (FIGS. 14A, 14B), 200 nM or 600 nM (FIG. 14C)) | fold induction of luciferase, concentration dependence (RS3-1 and variants; RS3-1 variants, 200 nM and 600 nM (FIG. 14C)) | fold induction at 0.1 µM ([1]; RS1-10, 100 nM) | fold induction at 1 µM ([1]; RS1-10, 1,000 nM) | fold-induction of luciferase (RS4-1 and variants) | fold induction at 0.1 µM ([2]; RS2-3, 100 nM) | fold induction at 1 µM ([2]; RS2-3, 1,000 nM) | fold induction at 0.1 µM ([3]; RS3-13, 100 nM) | fold induction at 1 µM ([3]; RS3-13, 1,000 nM) |
| --- | --- | --- | --- | --- | --- | --- | --- | --- | --- | --- | --- |
| Cc1cn2cc(-c3ccc(-c4ccc(C5CNC5)nn4)c(O)c3)cc(F)c2n1.Cl [1 A, 2-(6-(azetidin-3-yl)pyridazin-3-yl)-5-(8-fluoro-2-methylimidazo[1,2-a]pyridin-6-yl)phenol, HCl] | increasing fold induction of luciferase with increasing concentration of splice modulator | showed fold-induction of luciferase |  |  |  |  |  |  |  |  |  |
| Cc1cn2cc(-c3nc(=O)n4cc(N5CCN[C@@H](C)C5)cc(F)c4n3)cc(F)c2n1 [Compound 116B, (S)-9-fluoro-2-(8-fluoro-2-methylimidazo[1,2-a]pyridine-6-yl)-7-(3-methylpiperazin-1-yl)-4H-pyrido[1,2-a][1,3,5]triazin-4-one] |  |  | Some of the constructs show higher fold induction of luciferase in the presence of 116B compared to vehicle than RS3-1 | higher fold induction of luciferase with higher concentrations of 116B | 71.8 | 96.6 | increasing fold-induction of luciferase with increasing concentrations | 19.8 | 39.9 | 33.4 | 64.6 |
